Results: ChEMBL document CHEMBL1201862, “PubChem BioAssay data set” (2004)
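Each compound was tested at five concentrations against cells in 96-well plates for 48 hours. At the GI50, growth is halved.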 Calls of active or inactive are those of the source. Rule as the data show it: active = GI50 up to about 1.1 µM and inactive = higher.

Columns and labels:
Experiment in all cases: DTP human tumour cell line panel, 48 h
BT-549 = tested on: BT-549
LXFL 529 = tested on: LXFL 529
DMS-273 = tested on: DMS-273
M19-MEL = tested on: M19-MEL
DMS-114 = tested on: DMS-114
786-0 = tested on: 786-0
KM-20L2 = tested on: KM-20L2
HOP-18 = tested on: HOP-18
RXF 631 = tested on: RXF 631

Measured: GI50

COc1ccc(-c2c(C#N)c(NC(=S)NC(=O)c3ccccc3)nc3c2CCCC3)cc1OC
inactive: BT-549 > 100 µM

CC1(C)CCc2ccc(OCCC(=O)O)cc2O1
inactive: LXFL 529 > 100 µM | DMS-273 > 100 µM | M19-MEL > 100 µM | DMS-114 > 100 µM

CCOc1cc(C(=O)O)c2c(ccc3ccc(OC)c(OC)c32)c1OC
inactive: BT-549 > 100 µM | 786-0 > 100 µM

O=C(OC(=O)n1ccc2ccccc21)n1ccc2ccccc21
inactive: DMS-273 > 100 µM | KM-20L2 > 100 µM | M19-MEL > 100 µM | HOP-18 > 100 µM | DMS-114 > 100 µM

CN1CCN(Cn2nc(COc3ccc(Cl)cc3)n(/N=C/c3ccc(-c4ccc(Cl)cc4Cl)o3)c2=S)CC1
inactive: 786-0 5.12 µM

O=C(NN1C(=O)CS(=O)(=O)C1c1ccc(C(F)(F)F)cc1)c1ccncc1 (configuration not stated)
inactive: LXFL 529 > 100 µM | DMS-273 > 100 µM | HOP-18 > 100 µM | DMS-114 > 100 µM

COCCOCOC(C)(C)[C@H](CCO)O[Si](c1ccccc1)(c1ccccc1)C(C)(C)C
inactive: RXF 631 5.85 µM | LXFL 529 9.95 µM | KM-20L2 11.8 µM | M19-MEL 11.7 µM | HOP-18 17.5 µM

CCCCN(CCCC)c1ccc(/N=N/c2ccc(S(=O)(=O)O)cc2)cc1
inactive: BT-549 35.2 µM

COc1ccccc1/C=C1\CCC(CCN2CCOCC2)C1=O (configuration not stated)
inactive: RXF 631 92.7 µM | LXFL 529 > 100 µM | DMS-273 > 100 µM | KM-20L2 75 µM | M19-MEL > 100 µM | HOP-18 > 100 µM | DMS-114 42 µM | 786-0 > 100 µM

COc1cc2c(cc1OC)C(Cc1c3ccccc3cc3ccccc13)N(C)CC2 (configuration not stated)
inactive: DMS-273 26 µM | KM-20L2 15.2 µM | M19-MEL 21.3 µM | HOP-18 16.5 µM

Brc1ccccc1/C=C\C1(c2ccccc2)OCCO1
inactive: BT-549 18.3 µM | 786-0 11.6 µM
